From article PMC5094990, “Novel 1, 3-N, O-Spiroheterocyclic compounds inhibit heparanase activity and enhance nedaplatin-induced cytotoxicity in cervical cancer cells” (Oncotarget, 2016)
Read-outs that look alike come from different tables or passages of the source.

Assays:
HeLa cells [1] = assay: MTT assay, growth inhibition of HeLa cells; format: cell-based, human; conditions: for inhibition at 1 µM / inhibition at 5 µM / inhibition at 15 µM / inhibition at 30 µM / inhibition at 60 µM / inhibition at 120 µM / inhibition at 180 µM / inhibition at 240 µM / IC50: Homo sapiens, HeLa; for inhibition at 1 µM / inhibition at 5 µM / inhibition at 15 µM / inhibition at 30 µM / inhibition at 60 µM / inhibition at 120 µM / inhibition at 180 µM / inhibition at 240 µM: read-out: Growth inhibition rate in HeLa cells
Description: (§1) Cells were cultured in improved medium supplemented with 10% FBS and kept at 37°C in a […] humidified atmosphere containing 5% CO2. Logarithmic phase cells were used for the experiment and were treated with different concentrations of different medications for different amounts of time. […] Inhibitors were made into 10 mM stock solutions with DMSO, filtered, and kept at room temperature away from light. These inhibitor stock solutions were diluted to the required concentration (1, 5, 15, 30, 60, 120, 180, or 240 μM) before every experiment. The final doses of nedaplatin were […]. In order to determine whether an HPA inhibitor sensitized cells to nedaplatin, 10 μM of inhibitor number 16 (No. 16) was added into each experimental well with nedaplatin.
200 μl of single-cell suspension at a density of 5 × 10^4 cells/ml was seeded into 96-well plates. When cells were adherent, the medium was replaced with 200 μl of medium containing different concentrations of inhibitor or nedaplatin, and the cells were further incubated for 24 hours to 96 hours respectively. 20 μl MTT solution ([…] in phosphate buffered saline (PBS)) was added to each well 4 hours before the treatment ended. The cells were then incubated for another 4 hours, after which the supernatants were removed. The cells were totally solubilized in 150 μl DMSO. OD values were measured at the wavelength of 492 nm with a reference wavelength of 630 nm. Inhibition rate (IR) in the cells was calculated as follows: IR = ((OD2-OD0)-(OD1-OD0))/(OD2-OD0) × 100%, where OD0 was the OD value of blank wells, OD2 was the value of normal control wells, and OD1 was the value of experimental wells. Each condition was replicated in six separate wells.

human recombinant HPA = molecular target: T1, human recombinant HPA (Homo sapiens, UniProt Q9Y251); assay: Detection of HPA activity inhibition (Heparan Degrading Enzyme Assay Kit); format: biochemical; conditions: 31 mIU human recombinant HPA, 37°C, 45 minutes; read-out: IC50, inhibitory effect on heparanase activity
T1 sequence (Q9Y251 158-543 limits assumed): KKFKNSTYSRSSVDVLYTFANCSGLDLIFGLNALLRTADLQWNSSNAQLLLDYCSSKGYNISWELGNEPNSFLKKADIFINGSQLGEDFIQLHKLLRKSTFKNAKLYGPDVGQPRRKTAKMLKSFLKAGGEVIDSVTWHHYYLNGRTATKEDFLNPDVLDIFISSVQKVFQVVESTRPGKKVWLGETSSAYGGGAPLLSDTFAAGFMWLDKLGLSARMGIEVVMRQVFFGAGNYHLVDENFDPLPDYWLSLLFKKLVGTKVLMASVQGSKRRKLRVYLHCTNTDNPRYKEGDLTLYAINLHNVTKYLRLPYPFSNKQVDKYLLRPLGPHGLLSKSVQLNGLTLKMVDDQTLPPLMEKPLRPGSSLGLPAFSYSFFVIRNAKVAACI
T1 sequence (Q9Y251 36-109 limits assumed): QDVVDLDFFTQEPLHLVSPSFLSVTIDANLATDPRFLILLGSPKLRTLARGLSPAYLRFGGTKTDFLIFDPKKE
Description: The final reaction volume of each vial was 100 μl. […] Then, 100 μl of terminating liquid was added into each well. OD values were examined at a wavelength of 450 nm. Each concentration was tested in three separate wells. GraphPad Prism 5 (GraphPad Prism Software Inc., San Diego) was used to calculate the inhibitory IC50 values.

HPA = HPA expression in HeLa and Siha cells (immunocytochemical staining, western blot, real time PCR); format: cell-based, human; conditions: 50 μM, 24 hours, stronger after 48 hours
Excerpt: The experiment was repeated three times.
The experiment was repeated twice.

c-Myc = c-Myc expression in HeLa and Siha cells (western blot and PCR); format: cell-based, human; conditions: both HeLa and Siha cells, 50 μM, 48 hours
Description: (§2) Cells were washed with precooled PBS after being treated with inhibitor for 48 hours, and cell lysis solution was added to extract protein. The sample concentration was measured by the bicinchoninic acid method. 30 μg of protein was separated by 10% polyacrylamide gel electrophoresis (PAGE) and transferred to polyvinylidene difluoride membranes. After blocking in non-fat milk solution at room temperature, the membranes were incubated with diluted primary antibodies against either proteins of interest or β-actin overnight at 4°C. After consecutive washes, the membranes were incubated with secondary antibody (diluted 1:5000) at room temperature for 1 h. Then, the membranes were developed with enhanced chemiluminescence and imaged with ImageQuant LAS4000 (GE Healthcare Life Sciences, Pittsburgh, PA). The grey values of protein bands were analyzed using Image J (National Institutes of Health, USA). The relative levels of proteins of interest were calculated in comparison to the internal reference β-actin. The experiment was repeated three times.
(§3) Levels of HPA, p53, c-Myc, and hTERT mRNA were analyzed by real-time PCR. mRNA was extracted from cells and separated and purified with Trizol. The total RNA concentration was measured with an ultraviolet spectrophotometer. The quality of total RNA was assessed using 1.5% agarose gel electrophoresis. […]

[2] = test system: HaCaT human normal keratinocytes; assay: MTT assay, growth inhibition of HaCaT cells; format: cell-based; conditions: time not given
Description: as §1
(§4) 200 μl of single-cell suspension at a density of 5 × 10^4 cells/ml was seeded into 96-well plates. […] OD values were measured at the wavelength of 492 nm with a reference wavelength of 630 nm. Inhibition rate (IR) in the cells was calculated as follows: IR = ((OD2-OD0)-(OD1-OD0))/(OD2-OD0) × 100%, where OD0 was the OD value of blank wells, OD2 was the value of normal control wells, and OD1 was the value of experimental wells. […]

h-TERT = h-TERT expression in HeLa and Siha cells (western blot and PCR); format: cell-based, human; conditions: both HeLa and Siha cells, 50 μM, 48 hours
Description: as §2, §3

Siha cells [3] = assay: MTT assay, growth inhibition of Siha cells; format: cell-based, human
Description: as §1, §4

Siha cells [4] = assay: Cell wound healing assay (migration), Siha cells; format: cell-based, human; conditions: 50 μM, 24 hours, compared to control
Description: (§5) Straight lines 0.5 cm apart from each other were marked on the bottoms of culture dishes opposite the label lines. Logarithmic phase cells were seeded into 35 mm culture dishes. Nicks were made 0.5 cm apart on the bottom of the dish along the labeled lines with a 200 μl sterile pipette tip after cells were close to saturated. Dishes were then washed with sterile PBS three times, 2% FBS medium containing 0 or 50 μM of No. 16 inhibitor was added, and dishes were incubated for 24 hours. The scratch width was photographed under phase contrast on an inverted microscope with a digital camera (100× magnification). The experiment was repeated three times.

HaCaT cells = assay: Cell wound healing assay (migration), HaCaT cells; format: cell-based, human; conditions: 50 μM, 24 hours, compared to control
Description: as §5

p53 = p53 expression in HeLa and Siha cells (western blot and PCR); format: cell-based, human; conditions: both HeLa and Siha cells, 50 μM, 48 hours
Description: as §2, §3

HeLa cells [5] = assay: Cell wound healing assay (migration), HeLa cells; format: cell-based, human; conditions: 50 μM, 24 hours, compared to control
Description: as §5

[6] = 48 hours, MTT, read-out: IC50, growth inhibition of HeLa cells

Row | Compound | inhibition at 1 µM (HeLa cells [1]; 1 μM, 48 hs, mean ± s) | inhibition at 5 µM (HeLa cells [1]; 5 μM, 48 hs, mean ± s) | inhibition at 15 µM (HeLa cells [1]; 15 μM, 48 hs, mean ± s) | inhibition at 30 µM (HeLa cells [1]; 30 μM, 48 hs, mean ± s) | inhibition at 60 µM (HeLa cells [1]; 60 μM, 48 hs, mean ± s) | inhibition at 120 µM (HeLa cells [1]; 120 μM, 48 hs, mean ± s) | inhibition at 180 µM (HeLa cells [1]; 180 μM, 48 hs, mean ± s) | inhibition at 240 µM (HeLa cells [1]; 240 μM, 48 hs, mean ± s) | IC50 (HeLa cells [1]; [6]) | melting point | IC50 (human recombinant HPA) | further results
1 | COc1ccc(C2CNC(c3ccc([N+](=O)[O-])cc3)OC23CCCCC3)cc1 (centres unmarked) [No. 15] | 9.12 ± 0.166% | 17 ± 0.732% | 25.2 ± 0.947% | 33.2 ± 2.34% | 36.2 ± 0.592% | 77.5 ± 3.82% | 92.4 ± 3.08% | 95.2 ± 3.11% | 80 µM | 111.3 to 112.5 °C | 28.8 µM | 
2 | COc1ccc(C2CNC(c3ccccc3F)OC23CCCCC3)cc1 (centres unmarked) [No. 16] |  |  |  |  |  |  |  |  |  | 171.3 to 172.5 °C |  | Effect on HPA levels (HPA): reduced HPA levels; Effect on c-Myc expression (c-Myc): decreased; IC50 [2]: 1.71 mM; Effect on h-TERT expression (h-TERT): decreased; IC50 (Siha cells [3]; Homo sapiens, SiHa, read-out: IC50, growth inhibition of Siha cells): 78.8 µM; Effect on cell migration (scratch width) (Siha cells [4]): inhibited the migration; IC50 (HeLa cells [1]; 48 h, read-out: IC50, growth inhibition of HeLa cells, 48 hours, MTT): 48.2 µM; inhibition at 1 µM (HeLa cells [1]): 7.41 ± 0.976%; inhibition at 5 µM (HeLa cells [1]): 11 ± 0.467%; inhibition at 15 µM (HeLa cells [1]): 20.2 ± 0.779%; inhibition at 30 µM (HeLa cells [1]): 36.5 ± 0.471%; inhibition at 60 µM (HeLa cells [1]): 59.3 ± 1.1%; inhibition at 120 µM (HeLa cells [1]): 87.6 ± 0.891%; inhibition at 180 µM (HeLa cells [1]): 92.89 ± 0.537%; inhibition at 240 µM (HeLa cells [1]): 92.98 ± 0.237%; Effect on cell migration (scratch width) (HaCaT cells): minimal; Effect on p53 expression (p53): increased; Effect on cell migration (scratch width) (HeLa cells [5]): inhibited the migration
3 | COc1ccc(C2CNC(c3ccc(C)cc3)OC23CCCCC3)cc1 (centres unmarked) [No. 20] | 5.01 ± 0.247% | 5.02 ± 0.0834% | 13.3 ± 0.32% | 19.4 ± 1.34% | 38.49 ± 0.255% | 66.3 ± 1.14% | 90.5 ± 1.12% | 95.44 ± 0.525% | 77.6 µM | 105.4 to 106.7 °C | 14.1 µM | 
4 | COc1ccc(C2CNC(c3ccc(F)cc3F)OC23CCCCC3)cc1 (centres unmarked) [No. 22] | -3.13 ± 0.705% | -0.339 ± 0.0726% | 4.27 ± 0.729% | 22.1 ± 0.976% | 36.13 ± 0.285% | 66 ± 0.898% | 93.9 ± 1.67% | 95.18 ± 0.39% | 75.2 µM | 128.7 to 129.6 °C |  | 
5 | [NH2][Pt]1([NH2])[O]CC(=O)[O]1 [nedaplatin] |  |  |  |  |  |  |  |  |  |  |  | IC50, growth inhibition of Siha cells by nedaplatin alone (Siha cells [3]; 48 hours, nedaplatin alone): 11.204 µg/mL; IC50, growth inhibition of HeLa cells by nedaplatin alone (HeLa cells [1]; 48 hours, nedaplatin alone, listed as NDP): 2.878 µg/mL
